“And” between values parts separate entries of the source, which are not always exact repeats. Identical values can stand only once. Like-named read-outs stand apart in the source and are kept apart here.
How the values were obtained:
L. major promastigote [1] = conditions: cited from earlier work
L. donovani promastigote [2] = conditions: cited from earlier work
T. cruzi amastigote [3] = conditions: cited from earlier work
Ascaris suum complex II = Ascaris suum complex II (Ascaris suum, UniProt O44074+P92506+P92507); conditions: A. suum complex II; cited from earlier work
[4] = biological target: T1, A. suum respiratory chain complex II (Ascaris suum, UniProt O44074+P92506+P92507); assay: biochemical
T1 construct: measured using A. suum imago complex II; from tissue; host or cells: adult (imago) Ascaris suum
T1 sequence (Q33862 19-645 partner): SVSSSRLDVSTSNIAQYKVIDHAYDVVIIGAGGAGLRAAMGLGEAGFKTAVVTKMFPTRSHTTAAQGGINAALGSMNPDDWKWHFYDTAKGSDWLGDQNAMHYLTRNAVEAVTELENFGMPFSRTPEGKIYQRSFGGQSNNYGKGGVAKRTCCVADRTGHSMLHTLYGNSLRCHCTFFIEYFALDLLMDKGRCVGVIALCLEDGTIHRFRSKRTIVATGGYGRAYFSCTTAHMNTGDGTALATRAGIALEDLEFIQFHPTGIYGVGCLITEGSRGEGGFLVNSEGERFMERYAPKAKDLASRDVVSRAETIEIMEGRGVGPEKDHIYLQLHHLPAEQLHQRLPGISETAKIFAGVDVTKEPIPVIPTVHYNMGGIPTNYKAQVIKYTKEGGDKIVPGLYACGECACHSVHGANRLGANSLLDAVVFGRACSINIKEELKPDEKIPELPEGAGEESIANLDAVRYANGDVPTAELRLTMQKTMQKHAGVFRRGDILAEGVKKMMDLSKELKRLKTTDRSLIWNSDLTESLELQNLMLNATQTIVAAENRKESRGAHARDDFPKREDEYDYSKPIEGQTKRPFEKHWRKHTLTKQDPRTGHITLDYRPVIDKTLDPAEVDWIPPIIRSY
T1 sequence (O44074 22-282): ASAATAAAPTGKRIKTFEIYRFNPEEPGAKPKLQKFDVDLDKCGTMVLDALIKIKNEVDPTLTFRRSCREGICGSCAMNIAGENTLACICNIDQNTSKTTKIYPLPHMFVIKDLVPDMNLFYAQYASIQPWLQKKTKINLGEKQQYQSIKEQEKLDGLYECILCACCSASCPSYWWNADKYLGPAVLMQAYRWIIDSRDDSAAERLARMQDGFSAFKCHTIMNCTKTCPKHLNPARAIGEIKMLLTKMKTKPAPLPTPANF
T1 sequence (P92506 32-188): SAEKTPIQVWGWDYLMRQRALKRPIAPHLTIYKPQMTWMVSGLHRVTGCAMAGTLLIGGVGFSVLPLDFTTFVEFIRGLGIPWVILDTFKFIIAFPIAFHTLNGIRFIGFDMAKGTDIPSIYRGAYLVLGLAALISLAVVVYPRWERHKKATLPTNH
T1 sequence (P92507 26-156): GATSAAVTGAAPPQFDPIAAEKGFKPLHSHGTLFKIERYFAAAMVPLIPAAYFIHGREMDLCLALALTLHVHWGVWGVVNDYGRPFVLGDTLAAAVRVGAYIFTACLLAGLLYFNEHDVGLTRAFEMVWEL

pig complex II [5] = biological target: T2, pig complex II (Sus scrofa, UniProt A5GZW8+D0VWV4+Q007T0); type: biochemical
T2 sequence (Q0QF01 43-664 partner): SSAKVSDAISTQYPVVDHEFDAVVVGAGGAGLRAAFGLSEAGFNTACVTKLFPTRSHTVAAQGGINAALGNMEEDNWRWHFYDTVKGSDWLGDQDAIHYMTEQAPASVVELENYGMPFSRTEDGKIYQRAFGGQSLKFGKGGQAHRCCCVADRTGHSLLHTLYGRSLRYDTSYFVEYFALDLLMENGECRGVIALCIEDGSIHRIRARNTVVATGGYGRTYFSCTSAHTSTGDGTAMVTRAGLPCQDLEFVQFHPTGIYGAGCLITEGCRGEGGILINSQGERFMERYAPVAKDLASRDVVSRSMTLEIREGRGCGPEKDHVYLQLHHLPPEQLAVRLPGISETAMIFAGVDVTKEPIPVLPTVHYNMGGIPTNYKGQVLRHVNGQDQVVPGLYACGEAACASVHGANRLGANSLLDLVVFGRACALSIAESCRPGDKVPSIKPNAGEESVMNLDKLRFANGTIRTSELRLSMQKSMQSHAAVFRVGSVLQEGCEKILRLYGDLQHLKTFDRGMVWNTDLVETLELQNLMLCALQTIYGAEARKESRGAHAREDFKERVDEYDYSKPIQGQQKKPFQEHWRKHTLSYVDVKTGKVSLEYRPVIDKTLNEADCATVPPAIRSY
T2 sequence (Q007T0 29-280): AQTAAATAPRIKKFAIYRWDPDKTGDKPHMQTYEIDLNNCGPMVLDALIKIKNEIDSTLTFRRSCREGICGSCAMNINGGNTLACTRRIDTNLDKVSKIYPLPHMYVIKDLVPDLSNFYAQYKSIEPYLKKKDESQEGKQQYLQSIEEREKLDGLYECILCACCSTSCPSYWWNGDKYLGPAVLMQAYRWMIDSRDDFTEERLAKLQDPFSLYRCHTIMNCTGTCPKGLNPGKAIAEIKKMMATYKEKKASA
T2 sequence (D0VWV4 30-169): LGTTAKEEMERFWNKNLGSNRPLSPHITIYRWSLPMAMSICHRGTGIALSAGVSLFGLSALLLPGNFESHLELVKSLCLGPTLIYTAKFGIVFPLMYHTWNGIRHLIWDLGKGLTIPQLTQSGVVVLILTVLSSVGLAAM
T2 sequence (A5GZW8 57-159 limits assumed): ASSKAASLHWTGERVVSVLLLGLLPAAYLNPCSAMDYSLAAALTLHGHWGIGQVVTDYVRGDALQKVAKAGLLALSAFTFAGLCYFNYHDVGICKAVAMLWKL

[6] = tested on: Trychophyton spp., Epidermophyton floccosum, and Microsporium gypseum; conditions: cited from earlier work
L. major promastigote [7] = assay: Proliferation by Alamar Blue method, L. major promastigote; type: cell-based; conditions: Leishmania major, read-out: Celluler IC50
Source text: (§1) Siccanin inhibits trypanosomatid and plasmodia complex II with IC50 values on the nM order. Based on this fact, the present inventors further measured the impact of siccanin on the proliferation of parasites (Table 3). The species of the organisms used in the present study were: nonpathogenic leishmanial protozoan L. tarentolae promastigote (insect form), cutaneous leishmaniasis pathogen L. major promastigote (insect form), visceral leishmaniasis pathogen L. donovani promastigote (insect form), related species of African sleeping sickness pathogen T. b. brucei bloodstream form, Chagas disease pathogen T. cruzi amastigote (cell form), and plasmodia P. falciparum erythrocytic stage (Table 3). T. b. brucei bloodstream form and T. cruzi amastigote correspond to the stages found in mammalian hosts and can be used as target forms in drug treatments for African trypanosomiasis and Chagas disease.
(§2) In the presence of 0.05 to 50 μM siccanin, the proliferation of L. tarentolae promastigote, L. donovani promastigote, L. major promastigote, and T. brucei bloodstream form was measured by Alamar Blue method. […] The growth inhibitory effect of siccanin on T. cruzi was evaluated by counting the T. cruzi amastigote population that infected mouse cells. As compared with DMSO control, the number of the protozoa decreased by 50% in the presence of 10 μM siccanin. […]

T. cruzi complex II = type: biochemical, Trypanosoma cruzi
[8] = tested on: L. tarentolae promastigote; assay: Proliferation by Alamar Blue method, L. tarentolae promastigote; type: cell-based; conditions: Leishmania tarentolae, read-out: Celluler IC50
Source text: as §1, §2

A. simplex complex II = A. simplex complex II (Anisakis simplex, UniProt A0A0M3JRB2+A0A0M3KB13+A0A3P6RGD8); assay: biochemical
A. simplex complex II, sequence (A0A0M3JRB2 24-279): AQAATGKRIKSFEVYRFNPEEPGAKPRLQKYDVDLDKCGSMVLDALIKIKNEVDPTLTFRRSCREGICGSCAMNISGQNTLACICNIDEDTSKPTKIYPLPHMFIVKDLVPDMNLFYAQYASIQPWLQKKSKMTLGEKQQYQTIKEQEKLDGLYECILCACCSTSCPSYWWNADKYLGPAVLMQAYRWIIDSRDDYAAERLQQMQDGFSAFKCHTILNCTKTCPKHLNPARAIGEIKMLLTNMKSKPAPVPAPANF
A. simplex complex II, sequence (A0A3P6RGD8 1-99): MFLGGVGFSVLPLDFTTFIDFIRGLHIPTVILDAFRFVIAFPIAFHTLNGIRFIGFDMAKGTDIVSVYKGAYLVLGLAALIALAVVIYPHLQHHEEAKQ
A. simplex complex II, sequence (A0A0M3KB13 31-157): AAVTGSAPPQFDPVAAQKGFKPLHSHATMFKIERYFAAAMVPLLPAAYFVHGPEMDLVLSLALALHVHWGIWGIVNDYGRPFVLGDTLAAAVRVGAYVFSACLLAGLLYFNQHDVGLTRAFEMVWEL
A. simplex complex II, sequence (A0A0M3KCD2 1-354 partner): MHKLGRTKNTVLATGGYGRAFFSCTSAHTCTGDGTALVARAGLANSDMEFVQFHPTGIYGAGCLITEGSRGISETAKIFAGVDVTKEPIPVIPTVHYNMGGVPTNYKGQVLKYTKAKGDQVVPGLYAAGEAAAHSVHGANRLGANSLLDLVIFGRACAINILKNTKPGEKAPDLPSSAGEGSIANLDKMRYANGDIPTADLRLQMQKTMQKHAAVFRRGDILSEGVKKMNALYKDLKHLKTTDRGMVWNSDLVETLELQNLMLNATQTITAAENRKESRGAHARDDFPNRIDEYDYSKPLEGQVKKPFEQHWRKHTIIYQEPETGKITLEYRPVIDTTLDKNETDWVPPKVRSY

[9] = tested on: L. tarentolae complex II SDH activity; assay: Succinate dehydrogenase (SDH) reaction with PMS and MTT, L. tarentolae complex II; type: biochemical, Leishmania tarentolae; conditions: 50 μM siccanin
Procedure: (§3) In order to estimate the inhibitory mechanism of siccanin against complex II, the inhibitory pattern was determined by Lineweaver-Burk plot using succinate and quinone as the substrates. As samples for measurement, nematode complex II from A. suum and complex II from L. tarentolae, which is an easy-to-handle trypanosomatid, were used. […] The SDH activity is catalyzed by only subunits Fp and Ip of complex II and the quinone-binding domain is not essential for the reaction.

[10] = tested on: P. falciparum erythrocytic stage; assay: P. falciparum proliferation by LDH assay; type: cell-based, Plasmodium falciparum; conditions: read-out: Celluler IC50
Source text: as §1, §2

[11] = tested on: T. b. brucei bloodstream form; assay: Proliferation by Alamar Blue method, T. b. brucei bloodstream form; type: cell-based; conditions: Trypanosoma brucei, read-out: Celluler IC50
Source text: as §1, §2

L. tarentolae complex II = type: biochemical, Leishmania tarentolae
T. mentagrophytes = conditions: glycol salicylate ointment containing 1% siccanin applied 3-8 days after infection, albino guinea pigs, N=20; cited from earlier work
rat complex II = rat complex II (Rattus norvegicus, UniProt P21913+Q641Z9+Q6PCT8); conditions: cited from earlier work
T. b. brucei complex II = type: biochemical, Trypanosoma brucei brucei
[12] = biological target: T1, A. suum respiratory chain complex II; assay: Lineweaver-Burk inhibition pattern, A. suum complex II; type: biochemical; conditions: for Ki: A. suum SQR activity, for quinone (decylubiquinone)
Procedure: FIG. 1 is a graph which represents the inhibition pattern of siccanin against A. suum respiratory chain complex II.
as §3

[13] = tested on: Pseudomonas aeruginosa complex II; conditions: cited from earlier work
D. immitis complex II = type: biochemical, Dirofilaria immitis
pig complex II [14] = biological target: T2, pig complex II; conditions: Non-Patent Document 21; cited from earlier work
[15] = biological target: L. tarentolae respiratory chain complex II; assay: Lineweaver-Burk inhibition pattern, L. tarentolae complex II; type: biochemical, Leishmania tarentolae; conditions: for Ki: L. tarentolae SQR activity, for quinone (ubiquinone 1)
Procedure: FIG. 2 is a graph which represents the inhibition pattern of siccanin against L. tarentolae respiratory chain complex II.
as §3

T. cruzi amastigote [16] = assay: Count of T. cruzi amastigotes infecting mouse cells; type: cell-based, Trypanosoma cruzi
Source text: as §1, §2

H. contortus complex II = type: biochemical, Haemonchus contortus
D. immitis microfilariae = type: cell-based, Dirofilaria immitis
[17] = biological target: T3, A. suum complex II SDH activity (Ascaris suum, UniProt O44074+P92506+P92507); assay: Succinate dehydrogenase (SDH) reaction with PMS and MTT, A. suum complex II; type: biochemical; conditions: 50 μM siccanin
T3 construct: measured using A. suum imago complex II; from tissue; host or cells: adult (imago) Ascaris suum
Procedure: as §3

[18] = tested on: T. mentagrophytes mitochondria; conditions: cited from earlier work
[19] = biological target: Escherichia coli complex II (Escherichia coli, UniProt P07014+P0AC44+P69054); conditions: cited from earlier work
Escherichia coli complex II, sequence (P0AC41 whole entry partner): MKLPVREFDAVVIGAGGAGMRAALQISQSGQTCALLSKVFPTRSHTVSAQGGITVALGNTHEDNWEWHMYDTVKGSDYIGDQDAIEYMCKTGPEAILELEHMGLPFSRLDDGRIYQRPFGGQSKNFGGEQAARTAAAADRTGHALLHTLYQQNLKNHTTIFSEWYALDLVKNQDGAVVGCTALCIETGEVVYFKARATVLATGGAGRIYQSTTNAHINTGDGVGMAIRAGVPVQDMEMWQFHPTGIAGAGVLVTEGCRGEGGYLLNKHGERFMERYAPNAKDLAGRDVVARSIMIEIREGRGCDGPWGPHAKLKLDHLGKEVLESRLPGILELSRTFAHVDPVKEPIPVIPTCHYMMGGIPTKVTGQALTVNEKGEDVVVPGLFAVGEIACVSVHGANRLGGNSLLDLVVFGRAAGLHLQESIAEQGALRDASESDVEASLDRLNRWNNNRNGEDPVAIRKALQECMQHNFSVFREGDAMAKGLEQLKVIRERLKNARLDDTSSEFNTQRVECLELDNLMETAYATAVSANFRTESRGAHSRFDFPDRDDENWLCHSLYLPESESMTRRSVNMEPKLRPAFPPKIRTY
Escherichia coli complex II, sequence (P07014 whole entry): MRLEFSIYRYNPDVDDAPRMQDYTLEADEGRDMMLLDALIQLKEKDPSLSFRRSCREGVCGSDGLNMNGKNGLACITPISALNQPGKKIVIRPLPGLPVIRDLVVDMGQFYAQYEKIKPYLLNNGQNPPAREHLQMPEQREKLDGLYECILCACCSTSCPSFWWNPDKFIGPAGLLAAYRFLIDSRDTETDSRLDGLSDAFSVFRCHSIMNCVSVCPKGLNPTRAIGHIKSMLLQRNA
Escherichia coli complex II, sequence (P69054 whole entry): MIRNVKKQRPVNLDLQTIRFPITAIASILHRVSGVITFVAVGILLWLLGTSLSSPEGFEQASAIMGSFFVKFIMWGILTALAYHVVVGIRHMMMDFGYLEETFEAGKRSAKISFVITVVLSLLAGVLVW
Escherichia coli complex II, sequence (P0AC44 whole entry): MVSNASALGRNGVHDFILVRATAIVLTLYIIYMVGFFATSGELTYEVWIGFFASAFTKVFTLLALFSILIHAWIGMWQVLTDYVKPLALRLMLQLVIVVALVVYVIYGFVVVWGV

[20] = tested on: T. mentagrophytes respiratory chain complex II; conditions: cited from earlier work
P. falciparum complex II = type: biochemical, Plasmodium falciparum
L. donovani promastigote [21] = assay: Proliferation by Alamar Blue method, L. donovani promastigote; type: cell-based; conditions: Leishmania donovani
Source text: as §1, §2

[22] = complex II alone, read-out: Ki1
[23] = complex of complex II and ubiquinone, read-out: Ki2
[24] = A. suum complex II, Lineweaver-Burk plot

In the case of `C[C@@H]1[C@H](O)[C@@H](C)/C=C/C=C/C=C/C=C/C=C/C=C/C=C/[C@H](O[C@@H]2O[C@H](C)[C@@H](O)[C@H](N)[C@@H]2O)C[C@@H]2O[C@](O)(C[C@@H](O)C[C@@H](O)[C@H](O)CC[C@@H](O)C[C@@H](O)CC(=O)O[C@H]1C)C[C@H](O)[C@H]2C(=O)O` [Amphotericin B], the IC50 (L. major promastigote [1]) is given as ~0.043 µM and the IC50 (L. donovani promastigote [2]) is given as ~12 nM.
For `O=C(Cn1ccnc1[N+](=O)[O-])NCc1ccccc1` [benznidazole], the IC50 (T. cruzi amastigote [3]) is given as ~22 µM.
In the case of `CC(C)Oc1cccc(NC(=O)c2ccccc2C(F)(F)F)c1` [flutolanil], the “selectivity over pig complex II” value (Ascaris suum complex II) is listed as 800 fold.
For `CCCCCCCCCCCCCCCCOP(=O)([O-])OCC[N+](C)(C)C` [miltefosine], the IC50 (L. major promastigote [1]) is given as ~13.1 µM and the IC50 (L. donovani promastigote [2]) is given as ~450 nM.
For `CC1CS(=O)(=O)CCN1/N=C/c1ccc([N+](=O)[O-])o1` (stereo not shown) [nifurtimox], the IC50 (T. cruzi amastigote [3]) is listed as ~3.5 µM.
With `Cc1cc(O)c2c(c1)O[C@@]1(C)CC[C@H]3C(C)(C)CCC[C@]34CO[C@@H]2[C@H]41` [siccanin] the IC50 [4] was 5.7 nM, the Selectivity [4] was 180,000 fold and the “selectivity relative to the selectivity of flutolanil” value [4] was “about 20 fold”. The Selectivity (pig complex II [5]) was 1, the MIC [6] was 0.6 to 6.3 µg/mL and the IC50 (L. major promastigote [7]) was 13 µM. The Selectivity (T. cruzi complex II) was 718 fold, the IC50 (T. cruzi complex II; read-out: SQR IC50) was 1200 nM and the IC50 [8] was 4.4 µM. The IC50 (A. simplex complex II) was 11.2 nM, the Selectivity (A. simplex complex II) was 76875 fold and the “inhibition of SDH activity” value [9] was “no inhibitory effects”. It also gave an IC50 ([10]; Plasmodium falciparum) of 15.5 µM, an IC50 [10] of 16 µM and an IC50 [11] of 8.3 µM. The Selectivity (L. tarentolae complex II) was 4532 fold, the IC50 (L. tarentolae complex II; read-out: SQR IC50) was 190 nM and the “subjects whose skin was completely cured” value (T. mentagrophytes) was 85-100%. The IC50 (rat complex II) was 9.3 µM, the Selectivity (T. b. brucei complex II) was 3189 fold and the IC50 (T. b. brucei complex II; read-out: SQR IC50) was 370 nM. The Ki [12, 22] was 3 nM and 5.2 nM, the Ki [12, 23] was 8.7 nM and 9.9 nM and the “inhibitory pattern for quinone” value [12, 24] was “mixed inhibition”. For the same compound, the “inhibitory pattern for succinate” value [12, 24] was “non-competitive inhibition”, the IC50 ([13]; Pseudomonas aeruginosa complex II) was 870 nM and the “inhibition mode against quinone” value ([13]; membrane fraction of Pseudomonas aeruginosa) was “mixed inhibition”. For the same compound, the Selectivity (D. immitis complex II) was 62391 fold, the IC50 (D. immitis complex II; read-out: SQR IC50) was 13.8 nM and the IC50 (pig complex II [14]) was 861 µM. For the same compound, the Ki [15, 22] was 39 nM, the Ki [15, 23] was 102 nM and the “inhibitory pattern for quinone” value ([15]; L. tarentolae complex II, Lineweaver-Burk plot) was “mixed inhibition”. For the same compound, the “decrease in the number of the protozoa compared with DMSO control” value (T. cruzi amastigote [16]; 10 μM siccanin) was 50%, the IC50 (T. cruzi amastigote [16]; Trypanosoma cruzi, T. cruzi amastigote in mouse cells, read-out: Celluler IC50) was 10 µM and the Selectivity (H. contortus complex II) was 47308 fold. For the same compound, the IC50 (H. contortus complex II; read-out: SQR IC50) was 18.2 nM, the “Motility (%)” value (D. immitis microfilariae; 5 μM, 0 hr) was 100% and the “Motility (%)” value (D. immitis microfilariae; 5 μM, 24 hr) was 75%. The “Motility (%)” value (D. immitis microfilariae; 5 μM, 48 hr) was 50%, the “Motility (%)” value (D. immitis microfilariae; 50 μM, 0 hr) was 25% and the “Motility (%)” value (D. immitis microfilariae; 50 μM, 24 hr) was 0%. For the same compound, the “Motility (%)” value (D. immitis microfilariae; 50 μM, 48 hr) was 0%, the “inhibition of SDH activity” value [17] was “no inhibitory effects” and the “inhibition of NADH- or ascorbate-dependant oxygen consumption” value [18] was “does not inhibit”. The IC50 [19] was 268 µM, the IC50 [20] was 87 nM and the IC50 (P. falciparum complex II) was 98 nM. The Selectivity (P. falciparum complex II) was 8675, the IC50 (L. donovani promastigote [21]; read-out: Celluler IC50) was 700 nM and the IC50 (L. donovani promastigote [21]; read-out: IC50) was 700 nM.
In the case of ivermectin [reference compound], the “Motility (%)” value (D. immitis microfilariae; 5 μM, 0 hr) is reported as 100%, the “Motility (%)” value (D. immitis microfilariae; 5 μM, 24 hr) is reported as 75% and the “Motility (%)” value (D. immitis microfilariae; 5 μM, 48 hr) is reported as 50%. The “Motility (%)” value (D. immitis microfilariae; 50 μM, 0 hr) was 100%, the “Motility (%)” value (D. immitis microfilariae; 50 μM, 24 hr) was 50% and the “Motility (%)” value (D. immitis microfilariae; 50 μM, 48 hr) was 50%.

Reference: patent US20160263081A1, “ANTIPARASITIC AGENT” (NAI INC., priority 2013, published 2016)
